US8686115B2, “Compositions and methods for quantitatively monitoring lipids” (The Board of Trustees of the University of Illinois, priority 2009, dated 2014)
Substitutions are numbered along the chain they refer to.

Key:
[1] = system: epsin 1 ENTH domain (SEQ ID NO: 1) variant C96A/S4W (eENTH; SEQ ID NO: 2); assay: SPR equilibrium binding of epsin1 ENTH C96A/S4W (eENTH) to phosphoinositide-containing LUVs; conditions: S4W mutation, Table 1
Source text: (§1) The ENTH domain was engineered to introduce a single labeling site (M10C) on the membrane binding surface while removing an endogenous Cys (C96A). We also performed the S4W mutation to suppress its residual affinity for another lipid, phosphatidylinositol-3,4,5-trisphosphate (PtdIns(3,4,5)P3) (PtdIns(4,5)P2/PtdIns(3,4,5)P3=4 for wild type and >10 for the mutant) and to enhance the overall affinity for PtdIns(4,5)P2-containing membranes (ca. 4-fold) (Table 1).
(§2) With respect to FIG. 1, an L1 sensor chip was coated with POPC/POPS/PtdIns(4,5)P2 (77:20:3) LUVs. The proteins were incubated with a given concentration of IP3 for 5 minutes before injecting into the SPR instrument. Kinetic SPR measurements were performed in 20 mM Tris-HCL, pH 7.4, containing 0.16 KCl. […] A lower concentration of DAN-eENTH was used than that of PLCδ PH because the former has much higher affinity that the latter. […]
(§3) E. coli BL21 RIL codon plus (Stratagene) cells were used for protein expression. […] Purity and the concentration of the recombinant proteins were determined by sodium dodecylsulfate-polyacrylamide gel electrophoresis and bicinchoninic acid assay, respectively. The DAN labeling yield of eENTH, which was calculated as the molar ratio of DAN (determined spectrophotometrically at 391 nm using its extinction coefficient of 20,000 cm^−1 M^−1) to protein, was typically 60-70%. […]

[2] = biological target: T1, epsin 1 ENTH domain (SEQ ID NO: 1) variant C96A/S4W (eENTH; SEQ ID NO: 2) (Homo sapiens, UniProt Q9Y6I3, C96A/M10C/S4W); assay: as above; conditions: S4W mutant
T1 construct: The Epsin1 ENTH domain (1-158 amino acids) was subcloned; GST (C, cleaved yes); made in house; host or cells: E. coli BL21 RIL codon plus
T1 sequence (Q9Y6I3 1-158 S4W/M10C/C96A): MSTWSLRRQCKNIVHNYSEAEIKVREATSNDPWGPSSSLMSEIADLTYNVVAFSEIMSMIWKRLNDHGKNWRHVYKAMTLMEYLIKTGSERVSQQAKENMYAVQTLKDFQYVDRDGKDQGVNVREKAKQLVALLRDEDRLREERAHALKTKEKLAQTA
Source text: as §1, §2, §3

[3] = biological target: T2, epsin 1 ENTH domain, wild type, SEQ ID NO: 1 (Homo sapiens, UniProt Q9Y6I3); assay: SPR equilibrium binding of epsin1 ENTH domain (wild type) to phosphoinositide-containing LUVs
T2 construct: The Epsin1 ENTH domain (1-158 amino acids) was subcloned; GST (C, cleaved yes); made in house; host or cells: E. coli BL21 RIL codon plus
T2 sequence (Q9Y6I3 1-158): T1 sequence (Q9Y6I3 1-158 S4W/M10C/C96A) with W4S, C10M, A96C
Source text: as §1
(§4) With respect to FIG. 1, an L1 sensor chip was coated with POPC/POPS/PtdIns(4,5)P2 (77:20:3) LUVs. The proteins were incubated with a given concentration of IP3 for 5 minutes before injecting into the SPR instrument. Kinetic SPR measurements were performed in 20 mM Tris-HCL, pH 7.4, containing 0.16 KCl. […] A lower concentration of DAN-eENTH was used than that of PLCδ PH because the former has much higher affinity that the latter.
The Epsin1 ENTH domain (1-158 amino acids) was subcloned into the pGEX4T-1 vector and expressed as a […] glutathione S-transferase (GST)-tagged protein. The ENTH domain amino acid sequence is as follows:
E. coli BL21 RIL codon plus (Stratagene) cells were used for protein expression. Cells were grown in Luria broth media containing 100 μg/ml of ampicillin at 37° C. 0.1 mM of Isopropyl β-D-1-thiogalactopyranoside was added to induce over-expression of recombinant proteins when the OD600 reached 0.5-0.8 and cells were grown for additional 6 to 10 hours at 25° C. Cells were harvested by centrifugation and cell pellets were resuspended in 50 mM Tris-HCl buffer (pH 7.4) containing 160 mM KCl, 1 mM phenylmethanesulphonylfluoride, and 5 mM of dithiothreitol (DTT). Cells were lysed by sonication and the lysate was collected by centrifugation at 4° C. The GST-affinity resin (GenScript) for GST-tagged proteins or nickel-nitrilotriacetic acid resin (Qiagen, Valencia, Calif.) for His6-tagged proteins was added into the cell lysate and the mixture was gently shaken for 30 minutes at 4° C. The mixture was applied to a column and the column was washed once with 50 mM Tris-HCl buffer (pH 7.4) containing 160 mM KCl and 5 mM of DTT to reduce thiol group, and washed several times with the same buffer without DTT to remove DTT. For DAN labeling, 100 μg of acrylodan was added to the column at this stage and incubated 16 hours at 4° C. The excess acrylodan was removed by washing the column with the buffer several times. […] Purity and the concentration of the recombinant proteins were determined by sodium dodecylsulfate-polyacrylamide gel electrophoresis and bicinchoninic acid assay, respectively. The DAN labeling yield of eENTH, which was calculated as the molar ratio of DAN (determined spectrophotometrically at 391 nm using its extinction coefficient of 20,000 cm^−1 M^−1) to protein, was typically 60-70%. […]

[4] = biological target: T3, epsin 1 ENTH domain (SEQ ID NO: 1) variant C96A (Homo sapiens, UniProt Q9Y6I3, C96A); assay: SPR equilibrium binding of epsin1 ENTH C96A to phosphoinositide-containing LUVs; conditions: POPC/POPS/PtdIns(4,5)P2 (77:20:3) LUVs, 20 mM Tris-HCl pH 7.4, 0.16 M KCl, read-out: Kd for PtdIns(4,5)P2
T3 construct: The Epsin1 ENTH domain (1-158 amino acids) was subcloned; GST (C, cleaved yes); made in house; host or cells: E. coli BL21 RIL codon plus
T3 sequence (Q9Y6I3 1-158 C96A): T1 sequence (Q9Y6I3 1-158 S4W/M10C/C96A) with W4S, C10M
Source text: as §1, §4
All mutations (S4W, M10C, and C96A) were performed by polymerase chain reaction mutagenesis and verified by DNA sequencing. eENTH may comprise the following sequence:
E. coli BL21 RIL codon plus (Stratagene) cells were used for protein expression. Cells were grown in Luria broth media containing 100 μg/ml of ampicillin at 37° C. 0.1 mM of Isopropyl β-D-1-thiogalactopyranoside was added to induce over-expression of recombinant proteins when the OD600 reached 0.5-0.8 and cells were grown for additional 6 to 10 hours at 25° C. Cells were harvested by centrifugation and cell pellets were resuspended in 50 mM Tris-HCl buffer (pH 7.4) containing 160 mM KCl, 1 mM phenylmethanesulphonylfluoride, and 5 mM of dithiothreitol (DTT). Cells were lysed by sonication and the lysate was collected by centrifugation at 4° C. […] Purity and the concentration of the recombinant proteins were determined by sodium dodecylsulfate-polyacrylamide gel electrophoresis and bicinchoninic acid assay, respectively. The DAN labeling yield of eENTH, which was calculated as the molar ratio of DAN (determined spectrophotometrically at 391 nm using its extinction coefficient of 20,000 cm^−1 M^−1) to protein, was typically 60-70%. […]

CCCCCCCCCCCCCCCC(=O)OC[C@H](COP(=O)(O)O[C@@H]1[C@H](O)[C@H](O)[C@@H](OP(=O)(O)O)[C@H](OP(=O)(O)O)[C@H]1O)OC(=O)CCCCCCCCCCCCCCC [PtdIns(4,5)P2, phosphatidylinositol-4,5-bisphosphate]
enhancement of overall affinity for PtdIns(4,5)P2-containing membranes [1]: ca. 4 fold | PtdIns(4,5)P2/PtdIns(3,4,5)P3 selectivity [2]: > 10 | Kd ([3]; SPR, POPC/POPS/PtdIns(4,5)P2 (77:20:3) LUVs, 20 mM Tris-HCl pH 7.4, 0.16 M KCl, read-out: Kd for PtdIns(4,5)P2): 50 nM | PtdIns(4,5)P2/PtdIns(3,4,5)P3 selectivity ([3]; wild type): 4 | Kd [4]: 53 nM
